Measurements published in patent US3982931A, “N,N-di-sec.butyl-benzamide herbicides” (priority 1967, dated 1976).

Tests used:
[1] = tested on: amaranthus retroflexus L.; assay: herbicidal activity, soil treatment one day after sowing; type: in vivo
[2] = tested on: vicia sativa L.; assay: as above; type: in vivo
Method in brief: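 Pre-emergence soil treatment one day after sowing; activity scored visually on a […] scale against untreated control, from slight difference (1) to no germination or total containment at emergence (4); intermediate activity recorded as both classes, preeminent value first.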

[3] = tested on: echinocloa crus-galli R.S.; assay: as above; type: in vivo
[4] = tested on: useful plants; assay: phytotoxic action on useful plants (general statements); type: in vivo, useful gramineae; conditions: in words
Description: (§1) It is understood that all the data given herein shall have no limiting character on the object of this invention.

[5] = tested on: oryza sativa L. (rice); assay: activity on agrarian species, soil treatment one day after sowing; type: in vivo
Method in brief: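 Pre-emergence soil treatment of rice applied one day after sowing at 1, 3, 6, 8, 10, 12 and 14 kg/ha. Crop injury scored against untreated control on a 0–4 scale, 4 being no germination or total containment at emergence; intermediate activity recorded as both adjacent classes.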

[6] = tested on: setaria glauca L.; assay: herbicidal activity, soil treatment one day after sowing; type: in vivo
[7] = tested on: chenopodium album L.; assay: as above; type: in vivo
[8] = tested on: artemisia vulgaris L.; assay: as above; type: in vivo
[9] = tested on: infesting gramineae; assay: herbicidal action on infesting plants (general statements); type: in vivo; conditions: in words
Description: as §1

[10] = tested on: triticum vulgare L. (wheat); assay: activity on agrarian species, soil treatment one day after sowing; type: in vivo
Description: (§2) The infesting species and the agrarian species have been indicated in Table 1 by letters, as follows:
N = triticum vulgare L. (wheat)
(§3) Method of evaluation of the results (of tests):
(§4) 0 = no activity and no difference with respect to the control;
(§5) 1 slight differences with respect to the control;
(§6) 3 = considerable activity with damages that definitely impair the further development of most of the small plants; an activity degree already useful for practical purposes;
(§7) 4 = maximum of activity with lack of germination or total containment of the small plants in the emerging stage.
(§8) In the case of an intermediate activity between two classes of the scale, both values are recorded with the one which corresponds to the preeminent activity preceding.
(§9) TABLE 2 reports the activity data of other compounds that fall within the class which is the object of this invention.
(§10) TABLE 3 reports data on the herbicidal activity against infesting herbs, while TABLE 4 reports data concerning the activity on useful species of agricultural cultivations. These tables employ the criterion explained previously. The product was spread on the soil one day after sowing, in quantities of 1, 3, 6, 8, 10, 12 and 14 kg/ha.

[11] = tested on: solanum Lycopersicum L.; assay: as above; type: in vivo
Description: as §2
M = solanum Lycopersicum L.
as §3, §4, §5, §6, §7
In the case of an intermediate activity between two classes of the scale, both values are recorded with the one which corresponds to the preeminent activity preceding. […]

[12] = tested on: Echinocloa crus-galli; assay: Example 1 pot test, submerged rice-field earth, granular composition; type: in vivo; conditions: 3 kg/ha of active principle
Method: (§11) A series of pots were prepared filled with rice-field earth. Into these were then sown Echinocloa crus-galli and rice. The earth was then submerged by 10 cm of water and immediately thereafter were uniformly spread on the submerged soil granular compositions, some of them containing 2% of PA 234 and 98% of phosphorite, some others 5% of PA 234 and 95% of bentonite, in doses graduated from 0 - 8 kg of active principle per hectar. The test pots were kept in a conditioned environment at controlled temperature and photo-period.

[13] = tested on: rice; assay: as above; type: in vivo; conditions: maximum dose; doses 0 - 8 kg/ha
Method: as §11

[14] = tested on: zea mais L. (corn); assay: activity on agrarian species, soil treatment one day after sowing; type: in vivo
Method in brief: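 Pre-emergence soil application one day after sowing at 1, 3, 6, 8, 10, 12 and 14 kg/ha. Crop damage scored visually against untreated control on a 0–4 scale (0 = no effect, 4 = no germination or total containment at emergence); intermediate effects recorded with both scores.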

[15] = tested on: pisum sativum L. (pea); assay: as above; type: in vivo
[16] = tested on: avena sativa (oats); assay: as above; type: in vivo, Avena sativa L.; conditions: 6 kg/ha
[17] = tested on: phaseolus vulgaris (bean); assay: as above; type: in vivo, Phaseolus vulgaris L.
Method in brief: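 Product applied to soil one day after sowing at 1, 3, 6, 8, 10, 12 and 14 kg/ha. Effect on bean plants scored against control on a 0–4 scale, 4 meaning no germination or total containment at emergence; intermediate activity recorded with both values.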

[18] = tested on: avena sativa (oats); assay: as above; type: in vivo, Avena sativa L.
[19] = tested on: beta vulgaris L. (sugar-beet); assay: as above; type: in vivo
Description: as §2
H = beta vulgaris L. (sugar-beet)
as §3, §4, §5, §6, §7, §8, §9, §10

## CC(C)N(C(=O)c1cc(Cl)cc(Cl)c1Cl)C(C)C [PA302, 2,3,5-trichloro-N,N-di-iso-propyl-benzamide, reference compound]
[1]; 3 kg/ha
  activity on A, 0-4 scale: 2
[1]; 6 kg/ha
  activity on A, 0-4 scale: 2-3
[2]; 1 kg/ha
  activity on F, 0-4 scale: 0
[2]; 3 kg/ha
  activity on F, 0-4 scale: 0-1
[2]; 6 kg/ha
  activity on F, 0-4 scale: 0-1
[3]; 3 kg/ha
  activity on D, 0-4 scale: 4
[3]; 6 kg/ha
  activity on D, 0-4 scale: 4
[4]
  phytotoxic action on useful plants: phytotoxic action of considerable intensity
[5]; in vivo
  activity on P, 0-4 scale: 4-3
[6]; 1 kg/ha
  activity on E, 0-4 scale: 3-4
[6]; 3 kg/ha
  activity on E, 0-4 scale: 4
[6]; 6 kg/ha
  activity on E, 0-4 scale: 4
[7]; 1 kg/ha
  activity on C, 0-4 scale: 2
[7]; 3 kg/ha
  activity on C, 0-4 scale: 3
[7]; 6 kg/ha
  activity on C, 0-4 scale: 3
[8]; 1 kg/ha
  activity on B, 0-4 scale: 1-2
[8]; 3 kg/ha
  activity on B, 0-4 scale: 2
[8]; 6 kg/ha
  activity on B, 0-4 scale: 2
[9]
  herbicidal action: very active

## CCC(C)N(C(=O)c1cc(Cl)cc(Cl)c1)C(C)CC (stereo not shown) [PA234, 3,5-dichloro-N,N-di-sec.butyl-benzamide]
[10]; 2 kg/ha
  activity on N, 0-4 scale: 0
[10]; 4 kg/ha
  activity on N, 0-4 scale: 0
[10]; 6 kg/ha
  activity on N, 0-4 scale: 0
[1]; 2 kg/ha
  activity on A, 0-4 scale: 1-2
[1]; 4 kg/ha
  activity on A, 0-4 scale: 2
[1]; 6 kg/ha
  activity on A, 0-4 scale: 2-3
[2]; 2 kg/ha
  activity on F, 0-4 scale: 0
[2]; 4 kg/ha
  activity on F, 0-4 scale: 0
[2]; 6 kg/ha
  activity on F, 0-4 scale: 0
[3]; 0-5 kg/ha (so in the source)
  activity on D, 0-4 scale: 2-1
[3]; 0.5 kg/ha
  activity on D, 0-4 scale: 2-1
[3]; 1 kg/ha
  activity on D, 0-4 scale: 2-3
[3]; 2 kg/ha
  activity on D, 0-4 scale: 4
[3]; 4 kg/ha
  activity on D, 0-4 scale: 4
[3]; 6 kg/ha
  activity on D, 0-4 scale: 4
[5]; 6 kg/ha
  activity on P, 0-4 scale: 0
[11]; 2 kg/ha
  activity on M, 0-4 scale: 1
[11]; 4 kg/ha
  activity on M, 0-4 scale: 1
[11]; 6 kg/ha
  activity on M, 0-4 scale: 1
[12]
  growth of Echinocloa crus-galli: totally inhibited
[13]
  damage to rice: remained undamaged
[6]; 0-5 kg/ha (so in the source)
  activity on E, 0-4 scale: 3-2
[6]; 0.5 kg/ha
  activity on E, 0-4 scale: 3-2
[6]; 1 kg/ha
  activity on E, 0-4 scale: 3-4
[6]; 2 kg/ha
  activity on E, 0-4 scale: 4
[6]; 4 kg/ha
  activity on E, 0-4 scale: 4
[6]; 6 kg/ha
  activity on E, 0-4 scale: 4
[7]; 2 kg/ha
  activity on C, 0-4 scale: 1
[7]; 4 kg/ha
  activity on C, 0-4 scale: 2-1
[7]; 6 kg/ha
  activity on C, 0-4 scale: 2
[14]; 2 kg/ha
  activity on O, 0-4 scale: 0
[14]; 4 kg/ha
  activity on O, 0-4 scale: 0
[14]; 6 kg/ha
  activity on O, 0-4 scale: 0
[15]; 2 kg/ha
  activity on L, 0-4 scale: 0
[15]; 4 kg/ha
  activity on L, 0-4 scale: 0
[15]; 6 kg/ha
  activity on L, 0-4 scale: 0
[16]
  activity on G, 0-4 scale: 0
[17]; 2 kg/ha
  activity on I, 0-4 scale: 0
[17]; 4 kg/ha
  activity on I, 0-4 scale: 0
[17]; 6 kg/ha
  activity on I, 0-4 scale: 0
[18]; 2 kg/ha
  activity on G, 0-4 scale: 0
[18]; 4 kg/ha
  activity on G, 0-4 scale: 0
[8]; 2 kg/ha
  activity on B, 0-4 scale: 0-1
[8]; 4 kg/ha
  activity on B, 0-4 scale: 1
[8]; 6 kg/ha
  activity on B, 0-4 scale: 1-2
[19]; 2 kg/ha
  activity on H, 0-4 scale: 0
[19]; 4 kg/ha
  activity on H, 0-4 scale: 1
[19]; 6 kg/ha
  activity on H, 0-4 scale: 1
